Measurements: patent US20140155334A1, “POLYPHOSPHATE AND PYROPHOSPHATE DERIVATIVE OF SACCHARIDES” (Université de Strasbourg, priority 2010, published 2014)

Target: T1, stripped human Hb (Homo sapiens, UniProt P68871+P69905)
T1 construct: from tissue; host or cells: human blood (red blood cell hemolysate, gel-filtered on Sephadex G-25 to remove BPG)
Assay: Oxygen equilibrium curves of stripped hemoglobin (Hemox Analyzer), P50 shift
Type: biochemical
Conditions: compound:Hb molar ratio 20:1, TES-saline buffer pH 7.4
Text: Human blood was withdrawn from non-smoking healthy volunteers (CDD) in heparinized microtubes and treated according to the procedure described by Riggs. See A. Riggs, Methods Enzymol. 1981, 76, 5. Red blood cells were washed three times with 0.85% saline and lysed by the addition of 1 volume of purified water per volume of packed red blood cells. Hemolysate was kept cold and passed through a Sephadex G-25 column (1.0×20 cm) equilibrated with 0.1 M NaCl with 10^−5 M EDTA pH 7.5, to remove BPG. The concentration of oxy-Hb was assessed by UV-Vis spectrophotometry (ε=58400 M^−1 cm^−1 at 577 nm per oxy-Hb tetramer).
Solutions of the test compounds (supra, 100 mM) were prepared in purified water and the pH was adjusted to 7.0-7.4 prior to incubations with stripped Hb in a molar ratio of 20:1. The mixtures were diluted in 3 ml of TES-saline buffer (30 mM TES, 140 mM saline, pH 7.4) and oxygen equilibrium curves were measured using a Hemox Analyzer apparatus (TCS Scientific Corp., USA). The P50 values and Hill coefficients were calculated by linear regression analysis from data points obtained between 40 and 60% oxygen saturation.

T1 sequence (P68871 2-147 limits assumed): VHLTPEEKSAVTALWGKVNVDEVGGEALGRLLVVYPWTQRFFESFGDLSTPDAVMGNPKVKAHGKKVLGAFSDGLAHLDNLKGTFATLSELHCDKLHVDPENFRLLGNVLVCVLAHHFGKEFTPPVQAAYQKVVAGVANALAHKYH
T1 sequence (P69905 2-142 limits assumed): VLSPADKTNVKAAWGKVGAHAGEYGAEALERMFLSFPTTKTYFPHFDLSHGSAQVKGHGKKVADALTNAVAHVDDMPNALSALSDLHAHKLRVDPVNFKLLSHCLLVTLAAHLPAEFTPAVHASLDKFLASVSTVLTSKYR

| Structure (SMILES) | relative effectiveness in lowering Hb affinity to oxygen (comparison in words) | shift of the Hb oxygenation curves (P50) |
| --- | --- | --- |
| O=C([O-])[C@@H](COP(=O)([O-])[O-])OP(=O)([O-])[O-].[Na+].[Na+].[Na+].[Na+].[Na+] [BPG, 2,3-bisphospho-D-glyceric acid pentasodium salt, reference compound] | BPG<ITPP<IHP |  |
| CO[C@H]1O[C@H](CO)[C@@H](OP(=O)(O)O)[C@H](OP(=O)(O)O)[C@H]1OP(=O)(O)O [Compound 8, 1-O-methyl-α-glucose 2,3,4-trisphosphate] |  | 113% |
| CO[C@H]1O[C@H](CO)[C@@H](OP(=O)(O)O)[C@H](OP(=O)(O)O)[C@@H]1OP(=O)(O)O [Compound 10, 1-O-methyl-α-mannose 2,3,4-trisphosphate] | generally more effective than their corresponding glucose | 144% |
| O=P(O)(O)O[C@H]1O[C@H](CO)[C@@H](OP(=O)(O)O)[C@H](OP(=O)(O)O)[C@H]1OP(=O)(O)O [Compound 29, α-glucose 1,2,3,4-tetrakisphosphate] |  | 266% |
| O=P(O)(O)O[C@@H]1O[C@H](CO)[C@@H](OP(=O)(O)O)[C@H](OP(=O)(O)O)[C@H]1OP(=O)(O)O [Compound 30, β-glucose 1,2,3,4-tetrakisphosphate] |  | 201% |
| O=P(O)(O)O[C@H]1O[C@H](CO)[C@@H](OP(=O)(O)O)[C@H](OP(=O)(O)O)[C@@H]1OP(=O)(O)O [Compound 31, α-mannose 1,2,3,4-tetrakisphosphate] | generally more effective than their corresponding glucose |  |
| O=P(O)(O)O[C@@H]1O[C@H](CO)[C@@H](OP(=O)(O)O)[C@H](OP(=O)(O)O)[C@@H]1OP(=O)(O)O [Compound 32, β-mannose 1,2,3,4-tetrakisphosphate] | generally more effective than their corresponding glucose |  |
| O=P(O)(O)O[C@H]1O[C@H](CO)[C@H](OP(=O)(O)O)[C@H](OP(=O)(O)O)[C@H]1OP(=O)(O)O [Compound 33, α-galactose 1,2,3,4-tetrakisphosphate] |  | 226% |
| O=P(O)(O)O[C@@H]1O[C@H](CO)[C@H](OP(=O)(O)O)[C@H](OP(=O)(O)O)[C@H]1OP(=O)(O)O [Compound 34, β-galactose 1,2,3,4-tetrakisphosphate] |  | 259% |
| CO[C@H]1O[C@H](COP(=O)(O)O)[C@@H](OP(=O)(O)O)[C@H](OP(=O)(O)O)[C@H]1OP(=O)(O)O [Compound 41, 1-O-methyl-α-glucose tetrakisphosphate] |  | 264% |
| CO[C@H]1O[C@H](COP(=O)(O)O)[C@@H](OP(=O)(O)O)[C@H](OP(=O)(O)O)[C@@H]1OP(=O)(O)O [Compound 42, 1-O-methyl-α-mannose tetrakisphosphate] | less effective than the other mannose tetrakisphosphates derivatives |  |
| O=P(O)(O)OC[C@H]1O[C@H](OP(=O)(O)O)[C@H](OP(=O)(O)O)[C@@H](OP(=O)(O)O)[C@@H]1OP(=O)(O)O [Compound 47, α-glucose pentakisphosphate] |  | 466% |
| O=P(O)(O)OC[C@H]1O[C@H](OP(=O)(O)O)[C@@H](OP(=O)(O)O)[C@@H](OP(=O)(O)O)[C@@H]1OP(=O)(O)O [Compound 49, α-mannose pentakisphosphate] | generally more effective than their corresponding glucose | 520% |
| O=P(O)(O)OC[C@H]1O[C@H](OP(=O)(O)O)[C@H](OP(=O)(O)O)[C@@H](OP(=O)(O)O)[C@H]1OP(=O)(O)O [Compound 51, α-galactose pentakisphosphate] |  | 449% |
| O=P(O)(O)OC[C@H]1O[C@@H](O[C@H]2[C@H](OP(=O)(O)O)[C@@H](OP(=O)(O)O)C(OP(=O)(O)O)O[C@@H]2COP(=O)(O)O)[C@H](OP(=O)(O)O)[C@@H](OP(=O)(O)O)[C@H]1OP(=O)(O)O (some centres unmarked) [Compound 55, lactose octakisphosphate] |  | 550% |
| O=P(O)(O)O[C@H]1[C@H](OP(=O)(O)O)[C@@H](OP(=O)(O)O)[C@H](OP(=O)(O)O)[C@@H](OP(=O)(O)O)[C@H]1OP(=O)(O)O [IHP, myo-inositol hexakisphosphate, reference compound] | BPG<ITPP<IHP | 466% |
| O=P1([O-])OC2C3OP(=O)([O-])OP(=O)([O-])OC3C3OP(=O)([O-])OP(=O)([O-])OC3C2OP(=O)([O-])O1.[Na+].[Na+].[Na+].[Na+].[Na+].[Na+] (centres unmarked) [ITPP, myo-inositol trispyrophosphate hexasodium salt, reference compound] | BPG<ITPP<IHP |  |
